Measured values reported in patent US6358984B1, “2,4-dioxopyrrolidine and 2,4-dioxotetrahydrofuran derivatives and medicines containing the same as the active ingredient” (Lead Chemical Co., Ltd., priority 1996, dated 2002).
Read-outs that look alike come from different tables or passages of the source.

Tests used:
aortae of guinea pigs = experiment: Inhibition of vascular contraction caused by angiotensin II using pieces of the aortae of guinea pigs; type: cell-based; details: Cavia porcellus; guinea pig chest aorta, contraction induced by angiotensin II; read-out: Vascular contraction inhibition effect IC50
Procedure: Male Hartly guinea pigs (350 to 400 g) were contused on the head and sacrificed by allowing their blood to discharge from the arteria carotis communis. Immediately after death, the chest aorta was removed. A spiral sample of width 2 to 3 mm and length 20 to 25 mm was cut from the aorta, and was suspended in 4.5 ml of Krebs-Henseleit (K-H) solution (120 mM NaCl, 4.7 mM KCl, […], 1.2 mM KH2PO4, 2.5 mM CaCl2, 25 mM NaHCO3, and 10 mM glucose) in a Magnus vessel. The K-H solution in the Magnus vessel was maintained at 37° C., and a mixture gas of 95% O2 and 5% CO2 was continuously bubbled through the solution. First, 1 g of initial tension was applied to the sample, which was then left to stand rest for about 30 minutes, and 45 μl of 4M KCl solution was added to the solution to induce contraction. After contraction had stabilized, a washing operation was performed to replace the K-H solution. Then, after the sample was left to stand for 30 minutes, 45 μl of solvent DMSO was added to incubate the sample for 15 minutes, and 45 μl of angiotensin II solution (3×10^−8M) was added to induce contraction. This operation was repeated three times and 100% contraction was used as the average. Subsequently, the sample was stabilized by washing. Then, a 45 μl sample of each test compound prepared for each concentration (3×10^−5M to 10^−7M) using DMSO as a solvent was used to observe the inhibition effect of angiotensin II on vascular contraction by performing the same operation as described above. The contraction reaction was recorded on a recorder (RTA-1100, Japan Photoelectronics) via an equi-scale pressure transducer (TB-651T, Japan Photoelectronics). The angiotensin II inhibition effects of the test compounds were evaluated using the IC50 value.

angiotensin II receptor = target: T1, angiotensin II receptor (Oryctolagus cuniculus, UniProt P34976); experiment: Binding inhibition of 3H labeled angiotensin II to angiotensin II receptor membrane fraction; parameters: species or system rabbit; details: for IC50: rabbit adrenal gland membrane, 3H labeled angiotensin II 10^-9M, read-out: Receptor binding inhibition effect IC50
T1 construct: fraction of angiotensin II receptor membrane ([…]) prepared from rabbit adrenal gland; from tissue; host or cells: rabbit adrenal gland membrane fraction
T1 sequence (P34976 1-359): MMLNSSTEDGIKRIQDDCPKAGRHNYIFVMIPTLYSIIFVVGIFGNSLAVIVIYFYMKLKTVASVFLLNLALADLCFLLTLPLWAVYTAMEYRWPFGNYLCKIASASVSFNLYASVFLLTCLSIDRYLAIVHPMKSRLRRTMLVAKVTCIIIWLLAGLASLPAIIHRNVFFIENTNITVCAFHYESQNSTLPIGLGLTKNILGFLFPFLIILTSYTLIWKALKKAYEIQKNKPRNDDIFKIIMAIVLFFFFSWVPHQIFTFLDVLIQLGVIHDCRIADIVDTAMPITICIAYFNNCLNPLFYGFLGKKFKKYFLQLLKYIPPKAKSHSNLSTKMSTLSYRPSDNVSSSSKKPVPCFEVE
Procedure: The method of Cox et. al (Biochemical Pharmacology 33, 4057-4064 (1984) was modified to conduct angiotensin II receptor binding inhibition experiments. The present compounds (10^−5M to 10^−9M) and ^3H labeled angiotensin II (10^−9M) were added to a fraction of angiotensin II receptor membrane ([…]) prepared from rabbit adrenal gland and were allowed to react in a 20 mM Tris HCl buffer (pH: 7.0) containing 120 mM NaCl, 5 mM EDTA, 0.1 mM PMSF, and 0.2% BSA at 30° C. for 20 minutes so that the final volume was 540 μl. Then, the reaction mixture was quickly passed through a filter (whatman GF/B), and the filter was then rinsed three times in 4 ml of the buffer cooled in ice. Then, the radioactivity of receptor binding ^3H labeled angiotensin II captured on the filter was measured using a liquid scintillation counter. The angiotensin II receptor binding inhibition activity of the present compounds was evaluated based on the concentration (IC 50) required to replace 50% of the total amount of specifically binding ^3H labeled angiotensin II.

male ICR mice = experiment: Acute toxicity tests using male ICR mice; type: in vivo; details: 250, 500 and 1,000 mg/kg orally, dissected after 21 days
Procedure: Acute toxicity tests of the compounds 1d and 2d described in table 1 were carried out. […] As a result, in each administration group, no mouse died whichever compound had been administered.

[1] = system: hypertension caused by angiotensin II; experiment: Inhibition effect in the hypertension caused by angiotensin II using rats; type: in vivo, rat; details: Rattus norvegicus, iv, i. v., male SD rats, angiotensin II 100 ng/kg
Procedure: Male SD rats (age; 11 weeks; 310 to 330 g) Were used, and indwelling cannula were placed in the femoral aorta and the vena cava, under anesthesia with inactin. The arterial cannula was connected to a pressure transducer to record the blood pressure via a carrier amplifier (AP-601G Japan Photoelectronics) using a polygraph system (RM-6000 Japan Photoelectronics). Prior to tests using the test compounds, 100 ng/kg-equivalent angiotensin II (50 μl of serum solution from the rat) was administered using a regular-pulse cannula to check the hypertensive action. Then, 30 minutes later, a 1 mg/kg-equivalent test compound (50 μl of serum solution from the rat) was administered using the regular-pulse cannula, and similar administration of angiotensin II was performed 5 and 60 minutes later to check the corresponding hypertensive action. The hypertensive effect resulting from the administration of only angiotensin II was taken as a reference value of 100% to determine the antihypertensive rates of the test compounds.

[2] = 5 min, 5 minutes after administration, read-out: Inhibition effect in the hypertension by angiotensin II, 5 minutes after administration
[3] = 1 h, 60 minutes after administration, read-out: Inhibition effect in the hypertension by angiotensin II, 60 minutes after administration

| Structure (SMILES) | IC50 (aortae of guinea pigs) | Angiotensin II receptor antagonism (in words) (angiotensin II receptor) | IC50 (angiotensin II receptor) | Findings on dissection at the end of the observation period (male ICR mice) | inhibition in vivo at 1 mg/kg [1, 2] | inhibition in vivo at 1 mg/kg [1, 3] | melting point |
| --- | --- | --- | --- | --- | --- | --- | --- |
| CCCCc1nc(CCCC)n(Cc2ccc(-c3ccccc3/C=C3\NC(=O)CC3=O)cc2)n1 [Compound 1d, 3,5-Dibutyl-1-[2′-[(2,4-dioxopyrrolidine-5(Z)-ylidene)methyl]biphenyl-4-yl]methyl-1H-1,2,4-triazole] | 1.4 µM | distinct angiotensin II receptor antagonism | 130 nM | no abnormality | ≥ 70% | 30 to 70% | – |
| CCCCc1nc(C2CC2)nn1Cc1ccc(-c2ccccc2/C=C2\OC(=O)C=C2O)cc1 [Compound 2c, 5-Butyl-3-cyclopropyl-1-[2′-[(4-hydroxy-2(5H)-furanone-5(Z)-ylidene)methyl]biphenyl-4-yl]methyl-1H-1,2,4-triazole] | > 300 µM | – | 150 nM | – | 10 to 30% | < 10% | 168 to 170 °C |
| CCCCc1nc(CCCC)n(Cc2ccc(-c3ccccc3/C=C3\OC(=O)C=C3O)cc2)n1 [Compound 2d] | 4.5 µM | distinct angiotensin II receptor antagonism | 46 nM | no abnormality | 30 to 70% | 10 to 30% | – |
| CCCCc1nc(-c2ccccc2)nn1Cc1ccc(-c2ccccc2/C=C2\OC(=O)C=C2O)cc1 [Compound 2e, 5-Butyl-3-phenyl-1-[2′-[(4-hydroxy-2(5H)-furanone-5(Z)-ylidene)methyl]biphenyl-4-yl]methyl-1H-1,2,4-triazole] | 154 µM | – | 180 nM | – | 30 to 70% | 30 to 70% | 188 to 189 °C |
| CCCCc1nc(CCc2ccccc2)nn1Cc1ccc(-c2ccccc2/C=C2\OC(=O)C=C2O)cc1 [Compound 2f, 5-Butyl-3-(2-phenylethyl)-1-[2′-[(4-hydroxy-2(5H)-furanone-5(Z)-ylidene)methyl]biphenyl-4-yl]methyl-1H-1,2,4-triazole] | > 300 µM | – | 11 nM | – | 30 to 70% | < 10% | 184 to 185 °C |
| CCCCc1nc(-c2ccco2)nn1Cc1ccc(-c2ccccc2/C=C2\OC(=O)C=C2O)cc1 [Compound 2j, 5-Butyl-(furan-2-yl)-1-[2′-[(4-hydroxy-2(5H)-furanone-5(Z)-ylidene)methyl]biphenyl-4-yl]methyl-1H-1,2,4-triazole] | > 300 µM | – | 280 nM | – | < 10% | < 10% | 172 to 173 °C |
| CCCCc1nc(-c2cccs2)nn1Cc1ccc(-c2ccccc2/C=C2\OC(=O)C=C2O)cc1 [Compound 2k, 5-Butyl-3-(thiophene-2-yl)-1-[2′-[(4-hydroxy-2(5H)-furanone-5(Z)-ylidene)methyl]biphenyl-4-yl]methyl-1H-1,2,4-triazole] | > 300 µM | – | 310 nM | – | 10 to 30% | < 10% | 179 to 180 °C |
